Results from the NIST ThermoML archive (doi:10.1016/j.jct.2007.10.004).
± gives the expanded uncertainty stated by the source. Blank lines part the entries; values can stand above or below the compound they belong to.

Experiments:
[1] = Crystal
[2] = Molar enthalpy of transition or fusion; conditions: Crystal; DSC
[3] = Solid-liquid equilibrium temperature; conditions: Crystal

Normal melting temperature ([1]; DTA): 28.8 ± 0.4 °C
Molar enthalpy of transition or fusion [2]: 3.3 ± 0.086 kcal/mol
Structure (SMILES): O=C(O)CC1CCCCC1 [cyclohexylethanoic acid]

Normal melting temperature [1]: -14.60 ± 0.62 °C
Solid-liquid equilibrium temperature ([3]; 216000 kPa, Closed cell (Static) method): 303.15 ± 1.7 K
Solid-liquid equilibrium temperature ([3]; 268000 kPa, Closed cell (Static) method): 313.15 ± 1.9 K
Solid-liquid equilibrium temperature ([3]; 329000 kPa, Closed cell (Static) method): 323.15 ± 2 K
Solid-liquid equilibrium temperature ([3]; 400000 kPa, Closed cell (Static) method): 333.15 ± 2.2 K
Solid-liquid equilibrium temperature ([3]; 480000 kPa, Closed cell (Static) method): 343.15 ± 2.3 K
Solid-liquid equilibrium temperature ([3]; 569000 kPa, Closed cell (Static) method): 353.15 ± 2.6 K
Structure (SMILES): CCCCCCCCO [octan-1-ol]

Normal melting temperature ([1]; DTA): -51.70 ± 0.39 °C
Structure (SMILES): CC(=O)OCCC1CCCCC1 [cyclohexylethyl acetate]

Normal melting temperature ([1]; DTA): 29.8 ± 0.5 °C
Solid-liquid equilibrium temperature ([3]; 800 kPa, visual observation): 303.15 ± 0.26 K
Solid-liquid equilibrium temperature ([3]; 31000 kPa, visual observation): 313.15 ± 0.52 K
Solid-liquid equilibrium temperature ([3]; 63000 kPa, visual observation): 323.15 ± 0.9 K
Solid-liquid equilibrium temperature ([3]; 92000 kPa, visual observation): 333.15 ± 1.3 K
Solid-liquid equilibrium temperature ([3]; 121000 kPa, visual observation): 343.15 ± 1.7 K
Solid-liquid equilibrium temperature ([3]; 150000 kPa, visual observation): 353.15 ± 2.1 K
Molar enthalpy of transition or fusion [2]: 2.2 ± 0.0645 kcal/mol
Structure (SMILES): O=C(O)C1CCCCC1 [cyclohexanecarboxylic acid]

Normal melting temperature ([1]; DTA): -51.70 ± 0.4 °C
Molar enthalpy of transition or fusion [2]: 0.809 ± 0.0406 kcal/mol
Structure (SMILES): CC(=O)OC1CCCCC1 [cyclohexyl ethanoate]
